Results as given in patent US4985406A (Institut National de la Sante et de La Recherche Medicale …, priority 1987, dated 1991).
Starred links: 1 amine or outer side, 2 acyl side, 3 side chain; linkers in the order of their positions; H or OH if unused. Positions of bridges follow the written chain, without caps; N, C: chain ends. Non-standard residues stand in square brackets, D forms with d. Residues, ends and D or L forms follow the SMILES beside them. *: point of attachment. X1 = CC(C)(C)OC(=O)N[C@H](CCC(=O)[*:1])C(=O)[*:2]; sY = N[C@@H](Cc1ccc(OS(=O)(=O)O)cc1)C(=O)O; Nle = CCCC[C@H](N)C(=O)O; Boc = CC(C)(C)OC(=O)*

Experiments:
guinea-pig ileum = experiment: Test of contraction-inducing activity on guinea-pig ileum; details: mean (±S.E.M.) of 3 independent experiments; read-out: Contraction-inducing activity on guinea-pig ileum, agonist activity EC50
Protocol: This test is carried out according to the method described by HUTCHINSON et al., Eur. J. Pharmacol., 69, 87 (1981). Strips of guinea-pig ileum of the terminal portion are rapidly removed and attached in the cell of an isometric gauge containing 25 cm^3 of Tyrode's solution. The solution is maintained at 37° C. while a stream of a gas composed of 95% oxygen and 5% CO2 is passed through bubble by bubble. The test compounds are tested under the conditions described by RUIZ-GAYO et al., Peptides, 6, 415 (1985).
The values shown in this table for the agonist activity represent the mean (±S.E.M.) of 3 independent experiments.

[1] = biological target: guinea-pig pancreatic acini; experiment: Test of release of pancreatic amylase; type: cell-based; details: acini incubated 30 minutes at 37° C.; mean of 3 independent experiments in triplicate; read-out: Secretion of pancreatic amylase by guinea-pig acini, agonist activity EC50
Protocol: J. Physiol., 235, E 743 (1978). The acini are incubated for 30 minutes at 37° C. in the presence of the test product at different doses, according to the method described by GARDNER and JACKSON, J. Physiol., 270, 439 (1977). The amylase activity is determined using the PHADEBAS reagent (Pharmacia) according to the method described by CESKA et al., Experientia, 25, 555 (1969).
The values shown in this table represent the mean of 3 independent experiments, each performed in triplicate.

[2] = biological target: cholecystokininergic receptors of the central nervous system (guinea-pig brain cortex); experiment: Binding test, competition with [3H]BOC-[NLe28,31]CCK27-33 on guinea-pig brain cortex; details: for Ki: [3H]BOC-[NLe28,31]CCK27-33 at 0.2 nM, guinea-pig brain cortex; for Selectivity factor: ratio given as drawing 11, matches KI pancreatic acini / KI cortex
Protocol: (§1) The products of the invention are tested in competitive experiments with respect to the ligand [^3 H]BOC-[NLe^28,31 ]CCK27-33 on guinea-pig brain cortex and guinea-pig pancreatic acini. […] The [^3 H]BOC-[NLe^28,31 ]CCK27-33 was used at a concentration of 0.2 nM for the brain and 0.5 nM for the pancreas.

[3] = biological target: T1, peripheral cholecystokininergic receptors (guinea-pig pancreatic acini) (Cavia porcellus, UniProt Q63931); experiment: Binding test, competition with [3H]BOC-[NLe28,31]CCK27-33 on guinea-pig pancreatic acini; details: [3H]BOC-[NLe28,31]CCK27-33 at 0.5 nM
T1 construct: on guinea-pig brain cortex and guinea-pig pancreatic acini; from tissue; host or cells: guinea-pig pancreatic acini
T1 sequence (Q63931 1-430): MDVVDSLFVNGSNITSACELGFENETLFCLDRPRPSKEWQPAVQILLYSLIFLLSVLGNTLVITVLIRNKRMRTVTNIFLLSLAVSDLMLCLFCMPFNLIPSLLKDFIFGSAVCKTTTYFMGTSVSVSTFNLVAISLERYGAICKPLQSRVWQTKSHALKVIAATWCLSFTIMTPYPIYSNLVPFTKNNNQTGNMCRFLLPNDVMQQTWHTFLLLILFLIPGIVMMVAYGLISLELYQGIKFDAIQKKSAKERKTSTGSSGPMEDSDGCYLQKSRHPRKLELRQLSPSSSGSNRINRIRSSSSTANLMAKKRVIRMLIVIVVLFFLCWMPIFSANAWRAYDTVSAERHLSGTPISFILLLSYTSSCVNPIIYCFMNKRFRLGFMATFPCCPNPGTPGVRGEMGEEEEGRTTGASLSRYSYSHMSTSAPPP
Protocol: as §1

CCCC[C@H](NC(=O)[C@H](Cc1c[nH]c2ccccc12)NC(=O)[C@H]1CCCCNC(=O)C[C@@H](NC(=O)OC(C)(C)C)C(=O)N[C@@H](Cc2ccc(OS(=O)(=O)O)cc2)C(=O)N[C@@H](CCCC)C(=O)N1)C(=O)N[C@@H](CC(=O)O)C(=O)N[C@@H](Cc1ccccc1)C(N)=O [Example 5] (Boc-[dD][sY][Nle][dK]W[Nle]DF-NH2; lactam 1-4; N-terminus assumed) gave an EC50 (guinea-pig ileum) of over 10000 nM, an EC50 [1] of under 10000 nM and a Ki [2] of 5.1 nM. The Selectivity factor [2] was 179.
CCCC[C@H](NC(=O)[C@H](Cc1c[nH]c2ccccc12)NC(=O)[C@H]1CCCCNC(=O)CC[C@@H](NC(=O)OC(C)(C)C)C(=O)N[C@@H](Cc2ccc(OS(=O)(=O)O)cc2)C(=O)N[C@@H](CCCC)C(=O)N1)C(=O)N[C@@H](CC(=O)O)C(=O)N[C@@H](Cc1ccccc1)C(N)=O [Example 7] (Boc-[dE][sY][Nle][dK]W[Nle]DF-NH2; lactam 1-4; N-terminus assumed) was tested, and the EC50 (guinea-pig ileum) was over 10000 nM, the Ki [2] was 6.3 nM and the Selectivity factor [2] was 160.
Work on CCCC[C@H](NC(=O)[C@H](Cc1c[nH]c2ccccc12)NC(=O)[C@H]1CCCCNC(=O)[C@H](NC(=O)OC(C)(C)C)CCC(=O)N[C@@H](Cc2ccc(O)cc2)C(=O)N[C@@H](CCCC)C(=O)N1)C(=O)N[C@@H](CC(=O)O)C(=O)N[C@@H](Cc1ccccc1)C(N)=O [Example 15] (Y[Nle][dK]W[Nle]DF-NH2; linker N-3 via X1) yielded a Ki [3] of 860 nM.
Work on CCCC[C@H](NC(=O)[C@H](Cc1c[nH]c2ccccc12)NC(=O)[C@H]1CCCCNC(=O)[C@H](NC(=O)OC(C)(C)C)CCC(=O)N[C@@H](Cc2ccc(OS(=O)(=O)O)cc2)C(=O)N[C@@H](CCCC)C(=O)N1)C(=O)N[C@@H](CC(=O)O)C(=O)N[C@@H](Cc1ccccc1)C(N)=O [Example 16] ([sY][Nle][dK]W[Nle]DF-NH2; linker N-3 via X1; C-terminus assumed) yielded an EC50 (guinea-pig ileum) of over 10000 nM, a Ki [2] of 0.49 nM and a Selectivity factor [2] of 1970.
